Reference: ChEMBL document CHEMBL1144219, “Synthesis of new 4-[2-(4-methyl(amino)sulfonylphenyl)-5-trifluoromethyl-2H-pyrazol-3-yl]-1,2,3,6-tetrahydropyridines: a search for novel nitric oxide donor anti-inflammatory agents” (2008)
Calls of active or inactive are those of the source. The calls are words filed in the database; no cut-off is given here.

Tests used:
[1] = tested on: Rattus norvegicus; assay: Antiinflammatory activity against po dosed carrageenan-induced rat foot paw edema model; assay type: functional
[2] = tested on: Rattus norvegicus; assay: Antiinflammatory activity against carrageenan-induced rat foot paw edema model at 100 mg/kg, po; assay type: functional

SMILES | ED50 [1] | further results
CN1CC=C(c2cc(C(F)(F)F)nn2-c2ccc(S(C)(=O)=O)cc2)CC1 | 95.3 mg/kg | 
CN1CC=C(c2cc(C(F)(F)F)nn2-c2ccc(S(N)(=O)=O)cc2)CC1 | 61.2 mg/kg | 
CCOC(=O)N1CC=C(c2cc(C(F)(F)F)nn2-c2ccc(S(N)(=O)=O)cc2)CC1 |  | Activity [2]: inactive
CS(=O)(=O)c1ccc(-n2nc(C(F)(F)F)cc2C2=CCN(N=O)CC2)cc1 | 115 mg/kg | 
CCOC(=O)N1CC=C(c2cc(C(F)(F)F)nn2-c2ccc(S(C)(=O)=O)cc2)CC1 |  | inhibition in vivo at 100 mg/kg [2]: 24.1%
CS(=O)(=O)c1ccc(-n2nc(C(F)(F)F)cc2C2=CCNCC2)cc1 | 129 mg/kg | 
CC(=O)Oc1ccccc1C(=O)O [ASPIRIN] | 129 mg/kg | 
NS(=O)(=O)c1ccc(-n2nc(C(F)(F)F)cc2C2=CCNCC2)cc1 |  | inhibition in vivo at 100 mg/kg [2]: 7.1%
